Experimental data as given in PubChem BioAssay AID2060603 (Molecular Pharmacology Branch, DTP, NCI, 2025).

Test system: 422866-222-R5-J1-PDC spheroid viability
Assay: Anticancer human tumor 422866-222-R5-J1-PDC patient-derived pancreatic adenocarcinoma cell line growth inhibition [CLK]
Conditions: spheroids with HUVEC and MSC; for IC50: curve of first compound; for viability, T/C: stronger effect = lower value
Source text: A high-throughput screen of multi-cell type tumor spheroids was designed to identify active combinations of […] and targeted small molecules. Complex spheroids include a stromal component modeled by human endothelial cells (HUVEC) and fibroblasts modeled by human mesenchymal stem cells (MSCs). The concentration ranges selected for each drug and investigational agent were based upon clinically achievable concentrations if the clinical Cmax of the agent was known.
Compounds. The drugs and investigational agents: cirtuvivint (SM08502; NSC835563), CC-671 (NSC850746), vemurafenib (NSC761431), tapotoclax (NSC804041), sotorasib (NSC818433), adagrasib (NSC831453), MRTX-1133 (NSC836407), BAY2416964 (NSC825713), copanlisib (NSC816437), inavolisib (NSC800729), abemaciclib (NSC768073), osimertinib (NSC779217), entinostat (NSC756642), eltanexor (KPT-8602, NSC794443), venetoclax (NSC766270), ceralasertib (NSC777638), bortezomib (NSC756655), olaparib (NSC753686), talazoparib (NSC767125), alisertib (NSC759677), peposertib (NSC802822), gemcitabine (NSC613327), 5-fluorouracil (NSC19893), SN-38 (NSC673596), oxaliplatin (NSC266046), paclitaxel (NSC125973), and doxorubicin (NSC123127), were obtained from the National Cancer Institute (NCI) Developmental Therapeutics Program Chemical Repository. The FDA-approved anticancer drug set is available from the Developmental Therapeutics Program at https://dtp.cancer.gov/organization/dscb/obtaining/available plates.htm. […] The stock solutions were prepared in dimethyl sulfoxide (DMSO, Sigma-Aldrich, St. Louis, MO, cat. D2650), except for the platinum complexes which were prepared in saline (Quality Biological, Gaithersburg, MD, cat. 114-055-101), at 800-fold the tested concentration and stored at -70 degrees C prior to their use. All drugs and investigational agents were tested over a range starting from a high concentration at or near the clinical Cmax and decreasing in half-log increments. If the clinical Cmax for an agent had not been determined, the highest concentration tested was 10 microM.
Cell Culture. All cells were maintained in an incubator at 37 degrees C and 5% CO2 with 95% humidity. The PDC lines were cultured according to standard operating procedures established by the NCI PDMR. Briefly, all PDCs were thawed and cultured in Matrigel-coated flasks prepared with a working solution of 1X Ham's F-12 nutrient mix, without supplementation (Invitrogen, Waltham, MA, cat. 11765054), 100 U/mL penicillin-streptomycin (Invitrogen, cat. 15140122), and 2.5% Matrigel (Corning Inc., Corning, NY, cat. 354248) for the first three passages. The 947758-054-R-J2-PDC line was cultured in 6B/Colon 1A media, which includes advanced DMEM/F-12 (Thermo Fisher Scientific, cat. 12634028), 10 mM HEPES (Thermo Fisher Scientific, cat. 15630080), 1X GlutaMAX supplement (Thermo Fisher Scientific, cat. 35050061), 0.1 mg/mL primocin (InvivoGen, cat. ant-pm-2), 10% defined fetal bovine serum, heat inactivated (HyClone Laboratories Inc., cat. SH30070.03HI), 1.25 mM N-Acetyl-L-cysteine (Sigma-Aldrich, cat. A9165), 10 mM nicotinamide (Sigma-Aldrich, cat. N0636), 1X B-27 supplement (Thermo Fisher Scientific, cat. 17504044), 1X N-2 supplement (Thermo Fisher Scientific, cat. 17502048), and 10 microM Y-27632 dihydrochloride (Tocris Bioscience, cat. 1254). The 876862-298-R-J1-PDC was cultured in 6E media, which includes all 6B/Colon 1A media components plus 50% L-WRN conditioned media (ATCC, cat. CRL-3276), 50 ng/mL recombinant human EGF recombinant protein (hEGF; Thermo Fisher Scientific, cat. PHG0311), 10 ng/mL recombinant human fibroblast growth factor 10 (hGFG-10; PeproTech, cat. 100-26), 1 ng/mL recombinant human fibroblast growth factor 2 (hFGF-2; PeproTech, cat. 100-18B), and 1 µM prostaglandin E2 (PGE2; Tocris, cat. 2296). The 227483-062-R1-J1-PDC line was cultured in Panc media, containing all 6E components except hFGF-2, with the addition of 500 nM SB-431542 (Selleckchem, cat. S1067) and 10 nM gastrin (Tocris, cat. 3006). […]

[1] = second compound 0.0316 µM, first compound 0.0316 µM
[2] = second compound 0.0316 µM, first compound 0.1 µM
[3] = second compound 0.0316 µM, first compound 0.316 µM
[4] = second compound 0.0316 µM, first compound 1 µM
[5] = second compound 0.0316 µM, first compound 3.16 µM
[6] = second compound 0.0316 µM, first compound 10 µM
[7] = second compound 0.1 µM, first compound 0.0316 µM
[8] = second compound 0.1 µM, first compound 0.1 µM
[9] = second compound 0.1 µM, first compound 0.316 µM
[10] = second compound 0.1 µM, first compound 1 µM
[11] = second compound 0.1 µM, first compound 3.16 µM
[12] = second compound 0.1 µM, first compound 10 µM
[13] = second compound 0.316 µM, first compound 0.0316 µM
[14] = second compound 0.316 µM, first compound 0.1 µM
[15] = second compound 0.316 µM, first compound 0.316 µM
[16] = second compound 0.316 µM, first compound 1 µM
[17] = second compound 0.316 µM, first compound 3.16 µM
[18] = second compound 0.316 µM, first compound 10 µM
[19] = second compound 1 µM, first compound 0.0316 µM
[20] = second compound 1 µM, first compound 0.1 µM
[21] = second compound 1 µM, first compound 0.316 µM
[22] = second compound 1 µM, first compound 1 µM
[23] = second compound 1 µM, first compound 3.16 µM
[24] = second compound 1 µM, first compound 10 µM
[25] = second compound 3.16 µM, first compound 0.0316 µM
[26] = second compound 3.16 µM, first compound 0.1 µM
[27] = second compound 3.16 µM, first compound 0.316 µM
[28] = second compound 3.16 µM, first compound 1 µM
[29] = second compound 3.16 µM, first compound 3.16 µM
[30] = second compound 3.16 µM, first compound 10 µM
[31] = second compound 10 µM, first compound 0.0316 µM
[32] = second compound 10 µM, first compound 0.1 µM
[33] = second compound 10 µM, first compound 0.316 µM
[34] = second compound 10 µM, first compound 1 µM
[35] = second compound 10 µM, first compound 3.16 µM
[36] = second compound 10 µM, first compound 10 µM
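Note: spheroids exposed to agents for seven days before readout.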

CCCS(=O)(=O)Nc1ccc(F)c(C(=O)c2c[nH]c3ncc(-c4ccc(Cl)cc4)cc23)c1F + CN1CCN(c2cc(C(=O)Nc3cc4cc(-c5cnn(C)c5)ccc4cn3)ccn2)CC1
IC50 (second compound 0.0316 µM): > 10 µM | IC50 (second compound 0.1 µM): > 10 µM | IC50 (second compound 0.316 µM): > 10 µM | IC50 (second compound 1 µM): < 0.0316 µM | IC50 (second compound 3.16 µM): < 0.0316 µM | IC50 (second compound 10 µM): < 0.0316 µM | viability, T/C [1]: 111% | viability, T/C [2]: 113% | viability, T/C [3]: 136% | viability, T/C [4]: 161% | viability, T/C [5]: 179% | viability, T/C [6]: 150% | viability, T/C [7]: 108% | viability, T/C [8]: 124% | viability, T/C [9]: 137% | viability, T/C [10]: 134% | viability, T/C [11]: 168% | viability, T/C [12]: 138% | viability, T/C [13]: 95.9% | viability, T/C [14]: 102% | viability, T/C [15]: 98% | viability, T/C [16]: 109% | viability, T/C [17]: 133% | viability, T/C [18]: 99.5% | viability, T/C [19]: 31.4% | viability, T/C [20]: 30.9% | viability, T/C [21]: 32% | viability, T/C [22]: 27.8% | viability, T/C [23]: 31.4% | viability, T/C [24]: 23.5% | viability, T/C [25]: 8.19% | viability, T/C [26]: 9.62% | viability, T/C [27]: 11.2% | viability, T/C [28]: 12.2% | viability, T/C [29]: 16.5% | viability, T/C [30]: 16.1% | viability, T/C [31]: 1.72% | viability, T/C [32]: 2.24% | viability, T/C [33]: 2.24% | viability, T/C [34]: 2.75% | viability, T/C [35]: 2.94% | viability, T/C [36]: 0.92%

COC1C=CCC(C)C(C)S(=O)(=O)NC(=O)c2ccc3c(c2)N(CC2CCC21)CC1(CCCc2cc(Cl)ccc21)CO3 (centres undefined) + CN1CCN(c2cc(C(=O)Nc3cc4cc(-c5cnn(C)c5)ccc4cn3)ccn2)CC1
IC50 (second compound 0.0316 µM): > 10 µM | IC50 (second compound 0.1 µM): > 10 µM | IC50 (second compound 0.316 µM): > 10 µM | IC50 (second compound 1 µM): < 0.0316 µM | IC50 (second compound 3.16 µM): < 0.0316 µM | IC50 (second compound 10 µM): < 0.0316 µM | viability, T/C [1]: 102% | viability, T/C [2]: 102% | viability, T/C [3]: 113% | viability, T/C [4]: 98.1% | viability, T/C [5]: 97% | viability, T/C [6]: 76.8% | viability, T/C [7]: 131% | viability, T/C [8]: 104% | viability, T/C [9]: 105% | viability, T/C [10]: 107% | viability, T/C [11]: 114% | viability, T/C [12]: 94.7% | viability, T/C [13]: 103% | viability, T/C [14]: 92.8% | viability, T/C [15]: 104% | viability, T/C [16]: 99% | viability, T/C [17]: 113% | viability, T/C [18]: 105% | viability, T/C [19]: 29.4% | viability, T/C [20]: 28.8% | viability, T/C [21]: 38.5% | viability, T/C [22]: 28.9% | viability, T/C [23]: 38.7% | viability, T/C [24]: 39.2% | viability, T/C [25]: 8.76% | viability, T/C [26]: 9.13% | viability, T/C [27]: 9.74% | viability, T/C [28]: 7.9% | viability, T/C [29]: 9.36% | viability, T/C [30]: 5.17% | viability, T/C [31]: 2.4% | viability, T/C [32]: 1.91% | viability, T/C [33]: 1.69% | viability, T/C [34]: 1.81% | viability, T/C [35]: 2.33% | viability, T/C [36]: 3.52%
